Consider one compound from US20240108632A1, “PHARMACEUTICAL COMPOSITION FOR ADMINISTRATION AS OPHTHALMIC DROP TO PATIENT REQUIRING OPTIC NERVE PROTECTION” (PINOTBIO, INC., priority 2020, published 2024).

The structures appear in SMILES notation. Several values for one entry are separate records, joined by “and”; a condition that tells them apart may be missing. Equal entries are not always repeated.

One data set deals with 11β-HSD1 (Homo sapiens, UniProt P28845). Particulars: known; cited from earlier work.
11β-HSD1, sequence (P28845 whole entry, species assumed): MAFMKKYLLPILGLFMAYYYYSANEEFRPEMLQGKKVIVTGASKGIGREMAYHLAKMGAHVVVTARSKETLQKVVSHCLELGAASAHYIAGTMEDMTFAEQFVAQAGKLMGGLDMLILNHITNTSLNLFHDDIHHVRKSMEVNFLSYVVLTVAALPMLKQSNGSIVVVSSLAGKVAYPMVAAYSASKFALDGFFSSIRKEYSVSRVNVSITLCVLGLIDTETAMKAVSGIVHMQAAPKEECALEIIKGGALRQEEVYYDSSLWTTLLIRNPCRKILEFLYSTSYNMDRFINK
The subject of data set [1] is New Zealand White rabbit ocular hypertension model animals. The experiment in a line: IOP-lowering efficacy in rabbit ocular hypertension model (scleral vein ligation). Type of data set: in vivo. As to the method:
This study was conducted in male New Zealand White rabbit ocular hypertension model animals (intraocular pressure ≥17 mmHg) induced by scleral vein ligation to determine the effectiveness of KR-67607 eye drops in reducing ocular hypertension after repeated twice daily ophthalmic administration for 11 days.
Sterile physiological saline (negative control), Xalatan, Timoptic, Trusopt, Xalacom, and KR-67607 eye drops were administered twice daily for 11 days, and mortality and general symptoms were monitored, body weight was measured, feed intake was measured, and intraocular pressure was measured.

The test system of a further data set is GFAP, TNFα and BAX mRNA. The experiment in a line: RT-PCR of retinal tissue from ocular hypertension rabbits. Particulars: after Example 33 dosing. Type of data set: in vivo, New Zealand White rabbit. As to the method: Following Example 33, in order to separate the sample (eyeball) to observe the glaucoma treatment effect on the drug in addition to the change in intraocular pressure caused by the drug administration, the eyeball was enucleated and about 0.2 mL of the aqueous humor was collected, and then the retina (including some choroid) was collected. The collected aqueous humor and retina were placed in 1.5 mL polypropylene tubes pre-marked with sample information, frozen in a deep freezer (approximately −80° C.) until analysis, and delivered to the test site for analysis.
RNA or proteins were extracted from the eyes and analyzed by RT-PCR and western blotting to compare the expression of genes and proteins that can confirm the glaucoma treatment effect or optic nerve protection effect.
RNA was extracted from the isolated retinal tissue and analyzed by RT-PCR to compare the expression of genes that can confirm the glaucoma treatment effect or retinal protection effect. The tissues were lysed using TrizolTM Reagent (Invitrogen, CA, US) to extract the soluble RNA, and the RNA was precipitated by adding isopropanol (100%; Sigma-aldrich, MO, US).
Subsequently, cDNA was synthesized from the isolated RNA using a cDNA synthesis kit (AccuPower RT Premix; Bioneer, KR) and used for RT-PCR. The primer information used for RT-PCR analysis is as follows.
The synthesized DNA strands were then analyzed after separation on a 1.5% agarose gel using gene-specific primers (FIG. 28).

The test system of data set [2] is DBA/2 mice. The experiment in a line: Histology and immunostaining of retina and optic nerve head in glaucoma mouse model. Conditions: after 16 weeks of drug treatment.
Method: After drug administration was terminated, the mice's eyes were enucleated and tissues were analyzed (FIGS. 14 to 26).
The optic nerve papilla area was analyzed by H&E staining, Caspase-3, 9, and TUNEL staining in retinal tissue removed and fixed from eyes of mice after 16 weeks of drug treatment. […] To determine the degree of cell death in the damaged optic nerve papilla tissue, Caspase-3, 9 staining (FIGS. 15 and 16), an indicator of early apoptosis, and TUNEL staining (FIG. 17), an indicator of late apoptosis, were performed.
Data set [3] has as its system DBA/2 mice. The experiment in a line: Retinal electroretinogram in glaucoma mouse model. Type of data set: in vivo. Particulars: after 8 weeks; right eye only; 0.3 log cd×s/m^2 stimulation; high-dose; transient. As to the method: […] was performed according to the manufacturer's instructions after mice were anesthetized by instilling 20 μl of paracaine eye drops 0.5% in both eyes. The electrodes were placed on the scalp, tail, and cornea, respectively, and a certain amount of monochromatic white light stimulation was applied to perform retinal electroretinography. The response value of the stimulated retina and the amplitude from the crest of the a-wave to the peak of the b-wave were measured and evaluated as an indicator of retinal function.
To determine the effect of KR-67607 on retinal dysfunction and optic nerve damage, the electroretinograms of mice in the study were measured at 4-week intervals for 16 weeks. The electroretinograms were quantified by analyzing responses obtained by exposing the left and right eyes of the mice to −0.9, 0.3, and 1.2 log cd×s/m^2 of light, respectively. […] Before drug administration, there was no significant difference in retinal electroretinograms between the control, drug, and positive control groups. […] This effect was only transient at week 8, and no significant difference was seen from week 12.

Data set [4] in a line: Appearance of HP-β-CD solutions of KR-67607 prepared at various pH. Type of data set: physicochemical. Conditions: solution before entrapment under alkaline conditions; 3% HP-β-CD, 0.15% KR-67607. Here is the method: HP-β-CD aqueous solutions of various pH were prepared by adding 3% (w/v) appropriate amount of HP-β-CD to 0.08M NaOH aqueous solution, tertiary purified water, and 1M HCl aqueous solution. To each of the above different HP-β-CD solutions, 0.15% (w/v) KR-67607 was added and stirred for 1 hour, and then potassium dihydrogen phosphate, sodium chloride, and povidone K90 were mixed to a concentration of 0.68%, 0.435%, and 1.2% (w/v), respectively, to dissolve completely. The pH of the solution was adjusted to around 7.4 with 0.1 N HCl or 0.1 N NaOH aqueous solution, and then the total volume was adjusted by adding sterile purified water. The prepared solution was filtered through a 0.2 μm PVDF filter and evaluated for comparative appearance against a black background, and the results are shown in FIG. 5.

In the case of `CC1CN(CC(=O)NC2C3CC4CC2CC(C(N)=O)(C4)C3)S(=O)(=O)N(c2c(Cl)cc(C(F)(F)F)cc2Cl)C1` [KR-67607, (1s, 3R,4s,5S,7s)-4-(2-(6-(2,6-dichloro-4-(trifluoromethyl)phenyl)-4-methyl-1,1-dioxido-1,2,6-thiadiazinan-2-yl)acetamido)adamantane-1-carboxamide], on 11β-HSD1, the “inhibitory activity against 11β-HSD1” value is “good inhibitory activity”. The “IOP reduction greater than in the negative control group” value in data set [1] (Day 5) was found to be 34.4%. In data set [1] (Day 8), the “IOP reduction greater than in the negative control group” value is on record as 45.5%. In addition, the “IOP compared to 100% of pre-dose IOP” value in data set [1] (day 5, twice daily ophthalmic administration) is 49.0% and 60.1%. The “greater IOP reduction than the Xalacom treatment group” value in data set [1] (day 8) was 3.6%. Moreover, in the data set with GFAP, TNFα and BAX mRNA, the “mRNA expression level of BAX in retinal tissues” value is reported as “tended to decrease”, the “mRNA expression level of GFAP in retinal tissues” value is “tended to decrease” and the “mRNA expression level of TNFa in retinal tissues” value was “tended to decrease”. In addition, in the data set on DBA/2 mice [2], the “Brn3a expression in flat-mounted retinal tissue” value is on record as “relatively increased”, the GABAergic amacrine cells result is reported as “relatively increased”, the “GFAP expression (activated astrocytes) in optic nerve” value is “less concentrated” and the “GLT-1 expression in retina” value is on record as “no quantitative or qualitative difference”. Besides, in the data set with DBA/2 mice [2], the “degree of retinal ganglion cell death (caspase-3 and 9)” value is reported as “relatively reduced”; the “glaucomatous histologic features of optic nerve papilla (H&E: cupping, nerve fiber layer thinning)” value is “alleviated”; the “loss of retinal ganglion cells (H&E)” value is “less loss”; the “number of Iba-1 positive microglia” value is listed as “decreased”. For the same compound, the “number of caspase-3, 9 expressing and TUNEL-positive cells in optic nerve papillae” value in the data set with DBA/2 mice [2] is reported as “significantly reduced”. The “retinal electroretinograms compared to control group” value in the data set on DBA/2 mice [3] was “significant increase”. Further, the “entrapment ability of HP-β-CD for KR-67607 (appearance, FIG. 5)” value in data set [4] is recorded as “enhanced”.
